Source: publication PMC11110763, “Carltonine-derived compounds for targeted butyrylcholinesterase inhibition” (RSC Medicinal Chemistry, 2024)
Like-named read-outs stand apart in the source and are kept apart here.

Tests used:
[1] = PAMPA assay (BBB penetration); conditions: for BBB penetration estimation CNS (+/−): class from PAMPA Pe; for Pe ± SEM: PAMPA, PBS pH 7.4, n = 3
Text: Furthermore, we experimentally determined the ability of 12 highlighted hBChE inhibitors to pass through the BBB using a parallel artificial membrane permeation assay (PAMPA) as described by Di et al.[65] […] The methodology was validated on a set of compounds (positive and negative controls) recognized for their activity in the CNS (Table 3).
In this study, it has been used as a non-cell-based in vitro assay carried out in a coated 96-well membrane filter. The filter membrane of the donor plate was coated with PBL (polar brain lipid, Avanti, USA) in dodecane (4 μl of 20 mg ml^−1 PBL in dodecane) and the acceptor well was filled with 300 μl of PBS (pH 7.4; VA). The tested compounds were dissolved first in DMSO and subsequently diluted with PBS (pH 7.4) to final concentrations of 50–100 μM in the donor wells. […] About 300 μL of the donor solution was added to the donor wells (VD) and the donor filter plate was carefully put on the acceptor plate so that the coated membrane was “in touch” with both the donor solution and acceptor buffer. In principle, the test compound diffused from the donor well through the lipid membrane (area = 0.28 cm^2) to the acceptor well. The concentration of the drug in both the donor and acceptor wells was assessed after 3, 4, 5, and 6 h of incubation in quadruplicate using the UV plate reader Spark (Tecan Group Ltd, Switzerland) at the maximum absorption wavelength of each compound. Besides that, a solution of theoretical compound concentration, simulating the equilibrium state established if the membrane were ideally permeable, was prepared and assessed as well. The concentration of the compounds in the donor and acceptor wells and equilibrium concentration were calculated from the standard curve and expressed as the permeability (Pe) according the equation: [drawing 10] where [drawing 11]

[2] = biological target: T1, recombinant BChE (hBChE, E.C. 3.1.1.8) (Homo sapiens, UniProt P06276); assay: biochemical; assay type: biochemical; conditions: for IC50: mean ± SEM of three independent measurements, each in triplicate; for inhibition at 10 µM: read-out: % inhibition of hBChE ± SEM
T1 construct: purchased Sigma-Aldrich, Prague, Czech Republic
Experimental: The activities of hAChE and hBChE were determined using a modified Ellman's method, as described in ref. [56] and [62] against recombinant AChE (hAChE, E.C. 3.1.1.7) and recombinant BChE (hBChE, E.C. 3.1.1.8), both of which were purchased from Sigma-Aldrich, Prague, Czech Republic. […] The other compounds used, including the phosphate buffer solution (PBS, pH = 7.4), 5,5′-dithio-bis(2-nitrobenzoic) acid (Ellman's reagent, DTNB), acetylthiocholine (ATChI), and butyrylthiocholine (BTChI), were commercially available and purchased from Sigma-Aldrich in Prague, Czech Republic. In brief, the corresponding enzyme (8.3 μL), 5 mM DTNB (283 μL), and the sample dilution in dimethyl sulfoxide (DMSO) at various concentrations (8.3 μL) were added to 96-well microplates (BRAND GMBH + CO KG, Wertheim, Germany) and pre-incubated for 5 minutes in the assay medium. The reaction was initiated by adding 10 mM substrate (ATChI or BTChI, 33.3 μL). […] Each measurement was repeated in triplicate. The percentage of inhibition was calculated using the following formula: [drawing 8] where ΔABl represents the increase in absorbance of the blank sample, and ΔASa represents the increase in absorbance of the measured sample. […] Microsoft Excel (Redmond, WA, USA) and GraphPad Prism version 7 for Windows (GraphPad Software, San Diego, CA, USA) were used for the statistical data evaluation.

[3] = tested at 10 μM compound concentration

T1 sequence (P06276 29-602): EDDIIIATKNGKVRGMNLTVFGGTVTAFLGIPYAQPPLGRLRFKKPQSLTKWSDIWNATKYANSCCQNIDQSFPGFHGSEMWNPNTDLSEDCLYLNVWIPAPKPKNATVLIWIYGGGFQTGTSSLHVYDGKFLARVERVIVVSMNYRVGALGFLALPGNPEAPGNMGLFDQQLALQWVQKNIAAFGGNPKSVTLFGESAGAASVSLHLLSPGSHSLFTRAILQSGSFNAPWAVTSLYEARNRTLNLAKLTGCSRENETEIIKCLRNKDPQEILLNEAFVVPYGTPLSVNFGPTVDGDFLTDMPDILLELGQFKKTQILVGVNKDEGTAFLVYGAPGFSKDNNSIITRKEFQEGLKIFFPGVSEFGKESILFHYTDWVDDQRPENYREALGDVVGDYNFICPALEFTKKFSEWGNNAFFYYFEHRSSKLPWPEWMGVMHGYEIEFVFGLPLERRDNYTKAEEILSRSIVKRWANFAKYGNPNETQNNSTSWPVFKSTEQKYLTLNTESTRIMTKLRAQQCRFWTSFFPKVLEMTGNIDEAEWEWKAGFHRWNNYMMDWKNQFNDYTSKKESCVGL

SMILES | BBB penetration estimation CNS (+/−) [1] | IC50 [2] [nM] | inhibition at 10 µM [2, 3] [%] | hBChE inhibitory activity (in words) [2] | Pe ± SEM [1] | inhibition at 10 µM [2] [%]
NS(=O)(=O)c1cc2c(cc1Cl)N=CNS2(=O)=O [Chlorothiazide, reference compound] | CNS − (CNS (−) (low BBB permeation predicted): Pe (×10^−6 cm s^−1) < 2.0) |  |  |  |  | 
COc1cccc(CCNCc2cccc(OCc3ccccc3)c2)c1 [Compound 6, {[3-(Benzyloxy)phenyl]methyl}[2-(3-methoxyphenyl)ethyl]amine] |  | 2700 ± 200 | 78 ± 0.4 |  |  | 
COc1ccc(CCNCc2cccc(OCc3ccccc3)c2)cc1 [Compound 7, {[3-(Benzyloxy)phenyl]methyl}[2-(4-methoxyphenyl)ethyl]amine] |  | 4800 ± 200 | 73 ± 0.6 |  |  | 
C=CCN(CCc1ccc(O)cc1)Cc1cccc(OCc2ccccc2)c1 [Compound 8, 4-[2-({[3-(Benzyloxy)phenyl]methyl}(prop-2-en-1-yl)amino)ethyl]phenol] |  | 600 ± 100 | 92 ± 0.5 |  |  | 
C=CCOc1ccc(CCN(CC=C)Cc2cccc(OCc3ccccc3)c2)cc1 [Compound 9, {[3-(Benzyloxy)phenyl]methyl}(prop-2-en-1-yl){2-[4-(prop-2-en-1-yloxy)phenyl]ethyl}amine] |  | > 10000 | 46 ± 1.7 | complete loss of hBChE inhibitory activity |  | 
C=CCOc1ccc(CCNCc2cccc(OCc3ccccc3)c2)cc1 [Compound 12, {[3-(Benzyloxy)phenyl]methyl}({2-[4-(prop-2-en-1-yloxy)phenyl]ethyl})amine] |  | 4000 ± 1000 | 75.5 ± 0.5 |  |  | 
Clc1cccc(NCc2cccc(OCc3ccccc3)c2)c1 [Compound 13, N-{[3-(Benzyloxy)phenyl]methyl}-3-chloroaniline] |  | > 10000 | 7.5 ± 0.4 | completely inactive |  | 
c1ccc(CNCc2cccc(OCc3ccccc3)c2)cc1 [Compound 14, Benzyl({[3-(benzyloxy)phenyl]methyl})amine] | CNS + (CNS (+) (high BBB permeation predicted): Pe (×10^−6 cm s^−1) > 4.0) | 500 ± 100 | 92 ± 0.3 |  | 9.8 ± 2.9 ×10^−6 cm s^−1 | 
COc1ccc(CNCc2cccc(OCc3ccccc3)c2)cc1OC [Compound 15, {[3-(Benzyloxy)phenyl]methyl}[(3,4-dimethoxyphenyl)methyl]amine] |  | > 10000 | 49 ± 1.4 | completely inactive |  | 
c1ccc(CCNCc2cccc(OCc3ccccc3)c2)cc1 [Compound 16, {[3-(Benzyloxy)phenyl]methyl}(2-phenylethyl)amine] |  | 600 ± 100 | 91 ± 0.9 |  |  | 
c1ccc(CCCNCc2cccc(OCc3ccccc3)c2)cc1 [Compound 17, {[3-(Benzyloxy)phenyl]methyl}(3-phenylpropyl)amine] |  | 600 ± 100 | 89 ± 1.8 |  |  | 
CCN(Cc1ccccc1)Cc1cccc(OCc2ccccc2)c1 [Compound 19, Benzyl({[3-(benzyloxy)phenyl]methyl})ethylamine] | CNS + (CNS (+) (high BBB permeation predicted): Pe (×10^−6 cm s^−1) > 4.0) | 500 ± 100 | 88 ± 1.1 |  | 36 ± 14 ×10^−6 cm s^−1 | 
C=CCN(Cc1ccccc1)Cc1cccc(OCc2ccccc2)c1 [Compound 20, Benzyl({[3-(benzyloxy)phenyl]methyl})(prop-2-en-1-yl)amine] |  | > 10000 | 36 ± 0.8 |  |  | 
CCN(CCc1ccccc1)Cc1cccc(OCc2ccccc2)c1 [Compound 21, {[3-(Benzyloxy)phenyl]methyl}(ethyl)(2-phenylethyl)amine] | CNS + (CNS (+) (high BBB permeation predicted): Pe (×10^−6 cm s^−1) > 4.0) | 400 ± 100 | 91 ± 0.4 |  | 21.0 ± 0.6 ×10^−6 cm s^−1 | 
CCCN(CCc1ccccc1)Cc1cccc(OCc2ccccc2)c1 [Compound 22, {[3-(Benzyloxy)phenyl]methyl}(2-phenylethyl)propylamine] |  | 700 ± 100 | 81 ± 0.8 |  |  | 
C=CCN(CCc1ccccc1)Cc1cccc(OCc2ccccc2)c1 [Compound 23, {[3-(Benzyloxy)phenyl]methyl}(2-phenylethyl)(prop-2-en-1-yl)amine] |  | 7700 ± 1700 | 60 ± 0.4 |  |  | 
CCN(CCCc1ccccc1)Cc1cccc(OCc2ccccc2)c1 [Compound 24, {[3-(Benzyloxy)phenyl]methyl}(ethyl)(3-phenylpropyl)amine] |  | 600 ± 100 | 94 ± 0.6 |  |  | 
CCCN(CCCc1ccccc1)Cc1cccc(OCc2ccccc2)c1 [Compound 25, {[3-(Benzyloxy)phenyl]methyl}(3-phenylpropyl)propylamine] | CNS + (CNS (+) (high BBB permeation predicted): Pe (×10^−6 cm s^−1) > 4.0) | 540 ± 30 | 89 ± 0.8 |  | 33.0 ± 6.8 ×10^−6 cm s^−1 | 
C=CCN(CCCc1ccccc1)Cc1cccc(OCc2ccccc2)c1 [Compound 26, {[3-(Benzyloxy)phenyl]methyl}(3-phenylpropyl)(prop-2-en-1-yl)amine] |  | 1200 ± 300 | 76 ± 1.7 |  |  | 
COc1ccccc1CCNCc1ccc(OCc2ccccc2)cc1 [Compound 29, {[4-(Benzyloxy)phenyl]methyl}[2-(2-methoxyphenyl)ethyl]amine] |  | 800 ± 200 | 89 ± 0.9 |  |  | 

SMILES | BBB penetration estimation CNS (+/−) [1] | IC50 [2] [nM] | inhibition at 10 µM [2, 3] [%] | hBChE inhibitory activity (in words) [2] | Pe ± SEM [1] | inhibition at 10 µM [2] [%]
COc1cccc(CCNCc2ccc(OCc3ccccc3)cc2)c1 [Compound 30, {[4-(Benzyloxy)phenyl]methyl}[2-(3-methoxyphenyl)ethyl]amine] |  | 4900 ± 1000 | 66 ± 0.1 |  |  | 
COc1ccc(CCNCc2ccc(OCc3ccccc3)cc2)cc1 [Compound 31, {[4-(Benzyloxy)phenyl]methyl}[2-(4-methoxyphenyl)ethyl]amine] |  | 3000 ± 600 | 93 ± 0.2 |  |  | 
Clc1ccc(CCNCc2ccc(OCc3ccccc3)cc2)cc1 [Compound 32, {[4-(Benzyloxy)phenyl]methyl}[2-(4-chlorophenyl)ethyl]amine] |  | 700 ± 200 | 85 ± 1 |  |  | 
CCCOc1ccc(CCN(CCC)Cc2ccc(OCc3ccccc3)cc2)cc1 [Compound 34, {[4-(Benzyloxy)phenyl]methyl}[2-(4-propoxyphenyl)ethyl]propylamine] |  | > 10000 | 30 ± 0.9 | complete loss of hBChE inhibitory activity |  | 
c1ccc(CNCc2ccc(OCc3ccccc3)cc2)cc1 [Compound 35, Benzyl({[4-(benzyloxy)phenyl]methyl})amine] |  | 2800 ± 600 | 60 ± 0.1 |  |  | 
c1ccc(COc2ccc(CNCc3ccccn3)cc2)cc1 [Compound 36, {[4-(Benzyloxy)phenyl]methyl}[(pyridin-2-yl)methyl]amine] |  | > 10000 | 18 ± 0.5 |  |  | 
c1ccc(CCNCc2ccc(OCc3ccccc3)cc2)cc1 [Compound 37, {[4-(Benzyloxy)phenyl]methyl}(2-phenylethyl)amine] |  | 2000 ± 300 | 81 ± 1.4 |  |  | 
c1ccc(COc2ccc(CNCCc3ccccn3)cc2)cc1 [Compound 38, {[4-(Benzyloxy)phenyl]methyl}[2-(pyridin-2-yl)ethyl]amine] |  | > 10000 | 23 ± 1 |  |  | 
c1ccc(CCCNCc2ccc(OCc3ccccc3)cc2)cc1 [Compound 39, {[4-(Benzyloxy)phenyl]methyl}(3-phenylpropyl)amine] |  | 700 ± 100 | 90 ± 0.3 |  |  | 
c1ccc(CCCCNCc2ccc(OCc3ccccc3)cc2)cc1 [Compound 40, {[4-(Benzyloxy)phenyl]methyl}(4-phenylbutyl)amine] |  | 800 ± 100 | 85 ± 0.6 |  |  | 
CC(CNCc1ccc(OCc2ccccc2)cc1)c1ccccc1 (stereo not shown) [Compound 41, {[4-(Benzyloxy)phenyl]methyl}(2-phenylpropyl)amine] |  | 1600 ± 100 | 88 ± 1 |  |  | 
CC(CCc1ccccc1)NCc1ccc(OCc2ccccc2)cc1 (stereo not shown) [Compound 42, {[4-(Benzyloxy)phenyl]methyl}(4-phenylbutan-2-yl)amine] | CNS + (CNS (+) (high BBB permeation predicted): Pe (×10^−6 cm s^−1) > 4.0) | 500 ± 100 | 92 ± 0.5 |  | 22.0 ± 4.2 ×10^−6 cm s^−1 | 
CCN(Cc1ccccc1)Cc1ccc(OCc2ccccc2)cc1 [Compound 43, Benzyl({[4-(benzyloxy)phenyl]methyl})ethylamine] |  | > 10000 | 50 ± 1.1 |  |  | 
CCCN(Cc1ccccc1)Cc1ccc(OCc2ccccc2)cc1 [Compound 44, Benzyl({[4-(benzyloxy)phenyl]methyl})propylamine] |  | > 10000 | 18 ± 0.3 |  |  | 
CCCN(CCCc1ccccc1)Cc1ccc(OCc2ccccc2)cc1 [Compound 45, {[4-(Benzyloxy)phenyl]methyl}(3-phenylpropyl)propylamine] | CNS + (CNS (+) (high BBB permeation predicted): Pe (×10^−6 cm s^−1) > 4.0) | 290 ± 40 | 93 ± 0.8 |  | 25.0 ± 2.9 ×10^−6 cm s^−1 | 
CCN(Cc1ccc(OCc2ccccc2)cc1)C(C)CCc1ccccc1 (stereo not shown) [Compound 46, {[4-(Benzyloxy)phenyl]methyl}(ethyl)(4-phenylbutan-2-yl)amine] | CNS + (CNS (+) (high BBB permeation predicted): Pe (×10^−6 cm s^−1) > 4.0) | 500 ± 300 | 87 ± 1.5 |  | 36.0 ± 2.0 ×10^−6 cm s^−1 | 
CCCN(Cc1ccc(OCc2ccccc2)cc1)C(C)CCc1ccccc1 (stereo not shown) [Compound 47, {[4-(Benzyloxy)phenyl]methyl}(4-phenylbutan-2-yl)propylamine] |  | 1000 ± 300 | 93 ± 0.2 |  |  | 
CNC(=O)Oc1ccc2c(c1)[C@]1(C)CCN(C)[C@@H]1N2C [Eserine, reference compound] |  |  |  |  |  | 96 ± 0.3
COc1ccc2c3c1O[C@H]1C[C@@H](O)C=C[C@@]31CCN(C)C2 [Galantamine, reference compound] |  |  |  |  |  | 29 ± 3.5
Nc1c2c(nc3ccccc13)CCCC2 [Tacrine, reference compound] | CNS + (CNS (+) (high BBB permeation predicted): Pe (×10^−6 cm s^−1) > 4.0) |  |  |  |  | 
